{"source": "patent US20220168430A1", "about": "“THERAPEUTIC METHODS FOR TREATING HEPATITIS B” (priority 2019, published 2022)", "key": {"HBV rcDNA": {"test_system": "HBV rcDNA", "test": "Dual agent combination in HepDE19 cells, rcDNA by Quantigene 2.0 bDNA assay (Examples 5-8)", "assay_type": "cell-based, HBV; HepDE19 (HepG2 human hepatocarcinoma derived)", "conditions": "for ADDITIVE INHIBITION: Expt 3", "description": "In vitro dual agent combination studies were conducted using the method of Prichard and Shipman 1990 (Prichard M N, Shipman C, Jr. 1990. Antiviral Res 14:181-205). The HepDE19 cell culture system is a HepG2 (human hepatocarcinoma) derived cell line that supports HBV DNA replication and cccDNA formation under control the control of a CMV Tet-off promoter system (Guo et al. 2007. J Virol 81:12472-84). HepDE19 (50,000 cells/well) were plated in 96 well collagen-coated tissue-culture treated microtiter plates in DMEM/F12 medium supplemented with 10% fetal bovine serum+1% penicillin-streptomycin with tetracycline (1 μg/mL) and incubated in a humidified incubator at 37° C. and 5% CO2 overnight. Next day, the cells were switched to fresh medium without tetracycline and incubated for 4 hrs at 37° C. and 5% CO2. The cells were switched to fresh medium and treated with inhibitor A and inhibitor B, at concentration range spanning their respective EC50 values. […] The two inhibitors were tested both singly as well as in combinations in a checkerboard fashion such that each concentration of inhibitor A was combined with each concentration of inhibitor B to determine their combination effects on inhibition of rcDNA production. There were four replicates of each concentration combination in each experiment. The plates were incubated for 7 days in a humidified incubator at 37° C. and 5% CO2. The level of rcDNA present in the wells was measured using a Quantigene 2.0 bDNA assay kit (Affymetrix, Santa Clara, Calif.) with HBV specific custom probe set (genotype D ayw) and according to the manufacturer's instructions and read using a luminescence plate reader and the relative luminescence units (RLU) data generated from each well was calculated as % inhibition of the untreated control wells and analyzed using the MacSynergy II program to determine whether the combinations were synergistic, additive or antagonistic using the interpretive guidelines established by Prichard and Shipman (Prichard M N, Shipman C, Jr. 1990. […] Each experiment was repeated at least three times and the averages and standard deviations of individual determinations was calculated to derive the conclusion. Concurrently, in each experiment, the effect of inhibitor combinations on cell viability was assessed using replicate plates in triplicates that were used to determine the ATP content as a measure of cell viability using the Cell-Titer Glo reagent (Promega, Madison, Wis.) as per the manufacturer's instructions."}, "HBV DNA [1]": {"test_system": "HBV DNA", "test": "HBV DNA in culture supernatants of HBV-infected PHH by qPCR (Examples 15-17)", "assay_type": "cell-based, HBV genotype D; primary human hepatocytes", "conditions": "Hepatitis B virus, determined in an earlier separate experiment"}, "HBV DNA [2]": {"test_system": "HBV DNA", "test": "HBV DNA in culture supernatants of HBV-infected PHH by qPCR (Examples 15-17)", "assay_type": "cell-based, HBV genotype D; primary human hepatocytes", "description": "The day PHH seeding date was defined as day 0.\nThe PHH were infected with 400 HBV GE/cell of D type HBV on day 1.\nThe test articles were further diluted with the culture medium to the final test concentrations.\nAll the test articles were further diluted 100 times with the culture medium. The final concentration of DMSO in the culture medium was […].\nFour two-way combinations were performed on a 5×5 matrix, in triplicate plates. Transfection reagent was present in all wells.\nDNA in the culture supernatants harvested on days 8 was isolated with QIAamp 96 DNA Blood Kit (Qiagen-51162). For each sample, 100 μl of each culture supernatant was used to extract DNA. The DNA was eluted with 180 μl of AE. HBV DNA in the culture supernatants was quantified by quatitative PCR using well-established and commonly used procedures. Percent inhibition of HBV DNA was calculated with the formula below:\n% Inh. HBV DNA=[1−value of sample/AVG. value of Medium control]×100.\nResults of double combination studies were analyzed using MacSynergy II software (Prichard and Shipman, 1992)."}, "HBsAg": {"test_system": "HBsAg", "test": "HBsAg in culture supernatants of HBV-infected PHH by ELISA (Examples 15-17)", "conditions": "for AVERAGE % INHIBITION: HBsAg", "procedure": "All the test articles were further diluted 100 times with the culture medium. The final concentration of DMSO in the culture medium was 2%.\nHBsAg in the culture supernatants harvested on days 8 was measured using the HBsAg/ELISA kit (Autobio) according to the manual. The samples were diluted 4-fold with PBS to get the signal in the range of the standard curve. Percent inhibition of HBsAg was calculated with the following formula:\n% Inh. HBsAg=[1−HBsAg quantity of sample/HBV quantity of DMSO control]×100"}}, "note": "pEC50: −log10 of the molar value. “And” between values parts separate entries of the source, which are not always exact repeats. Identical values can stand only once."}
{"molecule": "C=C1[C@H](CO)[C@@H](O)C[C@@H]1n1cnc2c(=O)[nH]c(N)nc21", "note": "[ETV, entecavir]", "values": [{"measurement": "SYNERGY PLOT (99%) Bonferroni Adj. 55%", "setting": "HBV rcDNA", "result": 0}, {"measurement": "ADDITIVE INHIBITION", "setting": "HBV rcDNA; ETV 0.0003 μM alone", "result": 28.28}, {"measurement": "ADDITIVE INHIBITION", "setting": "HBV rcDNA; ETV 0.001 μM alone", "result": 38.31}, {"measurement": "ADDITIVE INHIBITION", "setting": "HBV rcDNA; ETV 0.003 μM alone", "result": 62.92}, {"measurement": "ADDITIVE INHIBITION", "setting": "HBV rcDNA; ETV 0.008 μM alone", "result": 88.06}, {"measurement": "inhibition at 0.0003 µM", "setting": "HBV rcDNA; Hepatitis B virus, HepDE19, Expt 3, ETV 0.0003 μM alone", "result": 28.3, "unit": "%"}, {"measurement": "inhibition at 0.001 µM", "setting": "HBV rcDNA; Hepatitis B virus, HepDE19, Expt 3, ETV 0.001 μM alone, read-out: AVERAGE % INHIBITION", "result": 38.3, "unit": "%"}, {"measurement": "inhibition at 0.003 µM", "setting": "HBV rcDNA; Hepatitis B virus, HepDE19, Expt 3, ETV 0.003 μM alone, read-out: AVERAGE % INHIBITION", "result": 62.9, "unit": "%"}, {"measurement": "inhibition at 0.008 µM", "setting": "HBV rcDNA; Hepatitis B virus, HepDE19, Expt 3, ETV 0.008 μM alone", "result": 88.1, "unit": "%"}, {"measurement": "pEC50", "setting": "HBV rcDNA; Hepatitis B virus, HepDE19, combination studies with Cmpd 1, read-out: Avg. Inhibitor B EC50", "result": 9.00}, {"measurement": "pEC50", "setting": "HBV DNA [1]", "result": 10.82}, {"measurement": "SYNERGY PLOT (99.9%) Bonferroni Adj. 98% (HBV DNA)", "setting": "HBV DNA [2]; Compound 1 0.00 μg/mL, ETV nM by row: r41 0.07000, r42 0.02300, r43 0.00780, r44 0.00260, r45 0.00086, r46 0.00000", "result": 0}, {"measurement": "inhibition at 860 fM", "setting": "HBV DNA [2]; Hepatitis B virus, HBV DNA, ETV 0.00086 nM alone", "result": -5.71, "unit": "%"}, {"measurement": "inhibition at 2.6 pM", "setting": "HBV DNA [2]; Hepatitis B virus, HBV DNA, ETV 0.00260 nM alone", "result": 8.16, "unit": "%"}, {"measurement": "inhibition at 23 pM", "setting": "HBV DNA [2]; Hepatitis B virus, HBV DNA, ETV 0.02300 nM alone", "result": 62.3, "unit": "%"}, {"measurement": "inhibition at 70 pM", "setting": "HBV DNA [2]; Hepatitis B virus, HBV DNA, ETV 0.07000 nM alone", "result": 85.7, "unit": "%"}, {"measurement": "inhibition at 7.8 pM", "setting": "HBV DNA [2]; Hepatitis B virus, HBV DNA, ETV […] alone", "result": 24.2, "unit": "%"}, {"measurement": "AVERAGE % INHIBITION", "setting": "HBsAg; ETV 0.00260 nM alone", "result": "4.92% and −1.45%"}, {"measurement": "AVERAGE % INHIBITION", "setting": "HBsAg; ETV 0.02300 nM alone", "result": "0.19% and −6.78%"}, {"measurement": "pEC50", "setting": "HBsAg; Hepatitis B virus", "result": "< 10.15"}]}
